Test system: Transport facilitation protein genes
Test: DNA chip mRNA expression in yeast, transport facilitation protein genes (Table 5)
Type: cell-based, Saccharomyces cerevisiae S288C
Summary of the method: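 S. cerevisiae S288C grown at 25° C in YPD were exposed in log phase for two hours to one toxic chemical at a growth-inhibiting, non-lethal concentration; untreated cells served as control. Poly(A) mRNA was reverse-transcribed with Cy3/Cy5-dUTP and hybridized to a whole-genome yeast DNA chip at 65° C for over 12 hours; values are fluorescence ratios versus untreated.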

Measured: The level of expressed mRNA in the presence of chemical substance/The level of expressed mRNA in the absence of chemical substance

manganese ethylenebis(dithiocarbamate) [(8)]
1.9: yeast gene YDR086C
1.0: yeast gene YBR068C | yeast gene YBR294W | yeast gene YCR098C | yeast gene YFL041W | yeast gene YGR065C | yeast gene YGR096W | yeast gene YGR138C | yeast gene YKR039W | yeast gene YOL156W | yeast gene YOR035C | yeast gene YPR194C
1.1: yeast gene YBR127C | yeast gene YDL198C | yeast gene YDL210W | yeast gene YGR055W | yeast gene YHL035C | yeast gene YMR011W | yeast gene YOL163W
1.5: yeast gene YFL054C | yeast gene YHL040C | yeast gene YHL047C | yeast gene YHR092C | yeast gene YJL034W | yeast gene YJL219W | yeast gene YNL259C | yeast gene YOR332W
2.0: yeast gene YOL119C
1.3: yeast gene YBR052C | yeast gene YER053C | yeast gene YPL134C
0.9: yeast gene YBR207W | yeast gene YBR293W | yeast gene YBR295W | yeast gene YDR038C | yeast gene YEL027W | yeast gene YEL065W | yeast gene YFL050C | yeast gene YGL006W | yeast gene YHR175W | yeast gene YJR106W | yeast gene YLR081W | yeast gene YLR348C | yeast gene YNR072W | yeast gene YPL271W
0.7: yeast gene YCL025C | yeast gene YCR037C | yeast gene YDR387C | yeast gene YGL008C | yeast gene YGL255W | yeast gene YGR191W | yeast gene YGR281W | yeast gene YIL056W | yeast gene YJL212C | yeast gene YJR121W | yeast gene YLL028W | yeast gene YMR203W | yeast gene YNL055C
0.6: yeast gene YDR039C | yeast gene YDR497C | yeast gene YEL063C | yeast gene YGR224W | yeast gene YIL006W | yeast gene YOR273C | yeast gene YPR192W
1.2: yeast gene YCL038C | yeast gene YDL245C | yeast gene YDR270W | yeast gene YDR298C | yeast gene YDR342C | yeast gene YDR343C | yeast gene YDR345C | yeast gene YHR094C | yeast gene YLR295C
0.8: yeast gene YBL030C | yeast gene YBL099W | yeast gene YBR132C | yeast gene YCR024C-A | yeast gene YDL128W | yeast gene YFL011W | yeast gene YGL104C | yeast gene YGL167C | yeast gene YGR082W | yeast gene YGR197C | yeast gene YIL022W | yeast gene YIL088C | yeast gene YJR077C | yeast gene YKL146W | yeast gene YKR067W | yeast gene YMR162C | yeast gene YOR130C | yeast gene YOR316C | yeast gene YOR348C
0.5: yeast gene YBR298C | yeast gene YGR260W | yeast gene YLR378C | yeast gene YOR153W | yeast gene YPL036W
1.6: yeast gene YHR026W | yeast gene YKL016C

Source: patent US8192962B2, “Processes for detecting toxic substances” (Daikin Industries, Ltd., priority 2001, dated 2012)
